Test results reported in PubChem BioAssay (NCI).
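Interpolation was linear, between the two tested concentrations surrounding the appropriate level; five concentrations were tested over 48 hours in 96-well plates. TGI: total growth inhibition.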

Legend:
Assay in all cases: NCI anticancer screen, dose series, 48 h
SF-539 CNS = system: SF-539 CNS
T-47D breast = system: T-47D breast
COLO 205 colon = system: COLO 205 colon
SK-OV-3 ovarian = system: SK-OV-3 ovarian
U251 CNS = system: U251 CNS
LOX IMVI melanoma = system: LOX IMVI melanoma
SK-MEL-2 melanoma = system: SK-MEL-2 melanoma
MDA-MB-435 = system: MDA-MB-435
HOP-62 NSCLC = system: HOP-62 NSCLC
BT-549 breast = system: BT-549 breast
MALME-3M melanoma = system: MALME-3M melanoma
MCF7 breast = system: MCF7 breast
SK-MEL-5 melanoma = system: SK-MEL-5 melanoma
A498 renal = system: A498 renal
A549 NSCLC = system: A549 NSCLC
UO-31 renal = system: UO-31 renal
SNB-19 CNS = system: SNB-19 CNS
M14 melanoma = system: M14 melanoma
TK-10 renal = system: TK-10 renal
HT29 colon = system: HT29 colon
NCI/ADR-RES ovarian = system: NCI/ADR-RES ovarian
CAKI-1 renal = system: CAKI-1 renal
RXF 393 renal = system: RXF 393 renal
EKVX NSCLC = system: EKVX NSCLC
K-562 leukemia = system: K-562 leukemia
SF-268 CNS = system: SF-268 CNS
SR leukemia = system: SR leukemia
UACC-257 melanoma = system: UACC-257 melanoma
RPMI-8226 leukemia = system: RPMI-8226 leukemia
NCI-H226 lung = system: NCI-H226 lung
HOP-92 NSCLC = system: HOP-92 NSCLC
SW-620 colon = system: SW-620 colon
HCT-15 colon = system: HCT-15 colon
OVCAR-3 ovarian = system: OVCAR-3 ovarian
SK-MEL-28 melanoma = system: SK-MEL-28 melanoma
786-0 renal = system: 786-0 renal
NCI-H460 lung = system: NCI-H460 lung
NCI-H522 lung = system: NCI-H522 lung
UACC-62 melanoma = system: UACC-62 melanoma
KM12 colon = system: KM12 colon
PC-3 prostate = system: PC-3 prostate
SN12C renal = system: SN12C renal
CCRF-CEM leukemia = system: CCRF-CEM leukemia
HCC-2998 colon = system: HCC-2998 colon
ACHN renal = system: ACHN renal
DU-145 prostate = system: DU-145 prostate
HCT-116 colon = system: HCT-116 colon
OVCAR-8 ovarian = system: OVCAR-8 ovarian
IGROV1 ovarian = system: IGROV1 ovarian
HL-60(TB) leukemia = system: HL-60(TB) leukemia
MDA-MB-231 breast = system: MDA-MB-231 breast
SF-295 CNS = system: SF-295 CNS
MOLT-4 leukemia = system: MOLT-4 leukemia
MDA-N = system: MDA-N
NCI-H23 lung = system: NCI-H23 lung
SNB-75 CNS = system: SNB-75 CNS
HS 578T breast = system: HS 578T breast
OVCAR-5 ovarian = system: OVCAR-5 ovarian
OVCAR-4 ovarian = system: OVCAR-4 ovarian

Measured: TGI

COc1ccc(NC(C)=O)cc1N1C(=O)/C(=C\c2ccccc2)SC1c1cc(OC)c(OC)c(OC)c1 (stereo not drawn)
41 µM: NCI/ADR-RES ovarian
45.5 µM: SF-539 CNS
80.6 µM: DU-145 prostate
71.4 µM: OVCAR-8 ovarian
48.3 µM: NCI-H226 lung
47.4 µM: HCC-2998 colon
37 µM: SK-MEL-5 melanoma
49.2 µM: 786-0 renal
29.5 µM: HCT-116 colon
35.8 µM: KM12 colon
56.2 µM: MALME-3M melanoma
34.5 µM: LOX IMVI melanoma
58.8 µM: HCT-15 colon
81 µM: HL-60(TB) leukemia
43.9 µM: SF-268 CNS
44.5 µM: NCI-H460 lung
35.4 µM: NCI-H522 lung
not listed: SNB-75 CNS | HS 578T breast | OVCAR-5 ovarian | OVCAR-4 ovarian
> 100 µM: all other assays above

COc1cc(C2OC(N)=C(C#N)C3=C2C(C)CCC3)cc(OC)c1OC (stereo not drawn)
40.7 µM: HOP-62 NSCLC
94.8 µM: SNB-75 CNS
not listed: A498 renal | A549 NSCLC | HOP-92 NSCLC | NCI-H460 lung | NCI-H522 lung | HCC-2998 colon | OVCAR-4 ovarian
> 100 µM: all other assays above

N#CC1=C2SCCN2C(=O)C(C#N)C12CCCCC2 (stereo not drawn)
not listed: HL-60(TB) leukemia | HS 578T breast
> 100 µM: all other assays above

CC12CCC(=O)N1c1cncnc1N2 (stereo not drawn)
not listed: T-47D breast | COLO 205 colon | HOP-62 NSCLC | SK-MEL-5 melanoma | A498 renal | CAKI-1 renal | RXF 393 renal | RPMI-8226 leukemia | SK-MEL-28 melanoma | MDA-MB-231 breast
> 10 µM: all other assays above
